Results on 16 compounds are retold here after US20230192703A1, “Polycyclic amide derivative as CDK9 inhibitor, preparation method therefor and use thereof” (Suzhou AlphaMa Biotechnology Co., Ltd., priority 2020, published 2023).

Assay [1] has as its system phosphorylation of RNA pol II Ser2 in Mv4-11 cells. The experiment in a line: Inhibition of phosphorylation of RNA pol II Ser2 in Mv4-11 cells (SDS-PAGE, FIG. 1). The settings on record: 6 hours, different concentrations. Format: cell-based. Here is the method: The inhibition effect of the compounds of the present disclosure on the in vitro Mv4-11 cell RNA pol II Ser 2 was determined by the following method:
Cell inoculation: Mv4-11 cells with good growing state in logarithmic growth phase were inoculated into a six-well plate with 2*10^5 cells/well, and cultured overnight at 37° C. and under 5% CO2 condition.
Administration: The compound was diluted with 2 mL of 1640 medium containing 10% FBS and 1% PS. 2 ul of the medium containing the compound was added to the overnight cultured cells, and it was placed in a 37° C., 5% CO2 cell incubator for 6 hours.
Protein extraction and quantification: Cell suspension was collected and centrifuged at 1000 g for 5 min, the cell culturing medium was discarded, and PBS was added for resuspension and centrifugation; it was repeated three times, the residual liquid was sucked dry, 80 uL cell lysate was added per well, it was placed to ice, shaked for 10 min on a shaker, centrifuged at 12000 g for 5 min, and the supernatant, ie, the total protein solution, was collected; the protein concentration was tested by BCA.

Another assay has as its system Mv4-11 cells. The experiment in a line: Inhibition of the proliferation of Mv4-11 cells (CCK8). The class given is cell-based. Particulars: Mv4-11 cell proliferation, CCK8 OD450. On the procedure: The inhibition effect of the compounds of the present disclosure on the proliferation of Mv4-11 cells (ATCC:CRL-9591TM) in vitro was determined by the following method:
Cell inoculation: Mv4-11 cells with good growing state in logarithmic growth phase were inoculated into a 96-well plate at 20000 cells per well and 50 uL, and cultured at 37° C. and under 5% CO2 condition for 2-4 h. Administration: The compound was diluted with 1640 medium containing 10% FBS and 1% PS: 0.4 uL of the compound with an initial concentration of 1 mM was placed in a dilution plate, each added with 199.6 uL of the above culture medium, and gradiently diluted 4-fold, so that the final concentration in the added cell was 1000, 250, 62.5, 15.625, 3.91, 0.98, 0.24, 0.06 nM. 50 μL of the medium containing the compound was sequentially added, and it was placed in a 37° C., 5% CO2 cell incubator for 48 hours.
Detection: 10 uL CCK8 (Dojindo, CK 04) solution was added to each well, incubated in 37° C. 5% CO2 cell incubator for 2 hours, and then the OD450 value was read by Synegry H1 (BioTek) multimode microplate reader.
Calculation: The IC50 value was calculated using Graphpad prism 5.0 software according to the concentration of the compound and the corresponding signal value.

The target of another assay is T1, CDK9 kinase (Homo sapiens, UniProt P50750).
T1 construct: purchased Millipore 14-685M
The experiment in a line: Inhibitory effect on the kinase activity of CDK9 in vitro. The class given is biochemical. Particulars: CDK9 kinase (Millipore), CTD3 substrate polypeptide, Caliper. Here is the method:
The detection of the inhibitory effect of the compounds of the present disclosure on the kinase activity of CDK9 in vitro was determined by the following method:
Compound preparation: The compound was accurately weighed and dissolved in DMSO (Sigma, D2650) to a concentration of 100 um for later use. The compound was diluted to 5-fold of a desired highest concentration, and diluted 4-fold into 6 concentration gradients, allowing the final concentration of the compound in the reaction system to be 100, 25, 6.25, 1.56, 0.39, 0.098 nM. 5 ul was taken to a 384-well plate (Corning, 4512).
Detection: Data was collected by Caliper.
Calculation: The IC50 value was calculated by Graphpad prism 5.0 software according to the concentration of the compound and the corresponding signal value.

T1 sequence (P50750 whole entry): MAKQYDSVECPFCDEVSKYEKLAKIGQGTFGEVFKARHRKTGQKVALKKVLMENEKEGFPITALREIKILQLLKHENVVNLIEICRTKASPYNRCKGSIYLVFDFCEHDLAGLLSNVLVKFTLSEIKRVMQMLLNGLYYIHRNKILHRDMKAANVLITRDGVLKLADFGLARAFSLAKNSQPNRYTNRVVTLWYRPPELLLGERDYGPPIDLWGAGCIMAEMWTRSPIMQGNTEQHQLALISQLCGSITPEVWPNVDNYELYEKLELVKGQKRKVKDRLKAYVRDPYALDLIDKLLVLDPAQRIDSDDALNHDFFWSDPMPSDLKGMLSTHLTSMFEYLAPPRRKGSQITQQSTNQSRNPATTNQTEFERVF
T1 sequence (O60563 whole entry partner): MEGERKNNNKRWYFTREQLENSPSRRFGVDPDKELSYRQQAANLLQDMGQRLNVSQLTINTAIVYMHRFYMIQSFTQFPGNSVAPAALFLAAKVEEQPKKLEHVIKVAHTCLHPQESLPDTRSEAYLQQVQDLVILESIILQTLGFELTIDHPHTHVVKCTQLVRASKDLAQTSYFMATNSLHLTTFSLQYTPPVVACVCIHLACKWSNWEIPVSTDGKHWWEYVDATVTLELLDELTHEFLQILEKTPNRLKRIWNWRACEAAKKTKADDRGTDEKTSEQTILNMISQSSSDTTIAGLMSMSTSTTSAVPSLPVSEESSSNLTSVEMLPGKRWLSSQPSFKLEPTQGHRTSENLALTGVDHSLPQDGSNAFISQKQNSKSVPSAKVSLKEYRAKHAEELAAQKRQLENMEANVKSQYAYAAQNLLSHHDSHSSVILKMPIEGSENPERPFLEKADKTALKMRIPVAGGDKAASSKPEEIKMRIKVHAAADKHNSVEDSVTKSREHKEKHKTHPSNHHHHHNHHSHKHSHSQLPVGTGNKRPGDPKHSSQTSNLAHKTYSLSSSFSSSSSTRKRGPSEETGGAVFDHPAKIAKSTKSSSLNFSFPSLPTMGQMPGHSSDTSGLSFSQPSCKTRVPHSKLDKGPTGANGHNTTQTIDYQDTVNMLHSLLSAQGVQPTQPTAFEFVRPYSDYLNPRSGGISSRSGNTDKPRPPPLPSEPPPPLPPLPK

By IC50 is commonly meant the midpoint of a concentration-inhibition curve. As to `CC(=O)N1C[C@H]2CC(C(=O)Nc3cc(-c4cc(C#N)n5c4CC(C)(C)C5)c(Cl)cn3)C[C@H]2C1` (single isomer, unassigned) [Compound 7-1], in assay [1], the “inhibitory effect on the phosphorylation of RNA pol II Ser 2 in Mv4-11 cells” value (shortened to “inhibitory effect on the phosphorylation”) is “significant inhibitory effect”. For the same compound, the IC50 was 17.5 nM in the assay with Mv4-11 cells (Homo sapiens, MV4-11, 48 h) and 3.2 nM at CDK9 kinase.
`Cn1ccc([C@@H]2CCC[C@H](C(=O)Nc3cc(-c4cnn5c4CC(C)(C)C5)c(Cl)cn3)C2)n1` (single isomer, unassigned) [Compound 22-1-1]: the “inhibitory effect on the phosphorylation” value in assay [1] is on record as “significant inhibitory effect”. Moreover, the concentration for half-maximal inhibition (IC50) with Mv4-11 cells (Homo sapiens, MV4-11, 48 h) worked out at 2.8 nM; at CDK9 kinase, 3.2 nM.
Consider `CC(=O)N1C[C@H]2CC(C(=O)Nc3cc(-c4cc(C(N)=O)n5c4CC(C)(C)C5)ccn3)C[C@H]2C1` (single isomer, unassigned) [Compound 32-1], for which the results for the half-inhibitory concentration (IC50) with Mv4-11 cells (48 hours) and against CDK9 kinase were 3.5 nM and 4.8 nM, respectively.
Turning to `CC(=O)N1C[C@H]2CC(C(=O)Nc3cc(-c4cc(C(N)=O)n5c4CC(C)(C)C5)ccn3)C[C@H]2C1` (single isomer, unassigned) [Compound 32-2], the values for the concentration for half-maximal inhibition (IC50) in the assay with Mv4-11 cells (48 hours) and at CDK9 kinase were 0.9 nM and 2.8 nM, respectively.
In the case of `CC(=O)N[C@@H]1CCC[C@H](C(=O)Nc2cc(-c3cc(C#N)n4c3CC(C)(C)C4)c(Cl)cn2)C1` [Compound 1, (1S,3R)-3-acetamido-N-(5-chloro-4-(5-cyano-2,2-dimethyl-2,3-dihydro-1H-pyrrolizin-7-yl)pyridin-2-yl)cyclohexane-1-carboxamide], the IC50 with Mv4-11 cells (Homo sapiens, MV4-11, 48 h) worked out at 1.6 nM; on CDK9 kinase it was 2.1 nM.
`CC(=O)N[C@@H]1CCC[C@H](C(=O)Nc2cc(-c3cc(C(N)=O)n4c3CC(C)(C)C4)c(Cl)cn2)C1` [Compound 2, 7-(2-((1S,3R)-3-acetylaminocyclohexane-1-carboxamido)-5-chloropyridin-4-yl)-2,2-dimethyl-2,3-dihydro-1H-pyrrolizine-5-carboxamide]: the 50% inhibitory concentration (IC50) stood at 27.6 nM with Mv4-11 cells (Homo sapiens, MV4-11, 48 h) and 2.8 nM against CDK9 kinase.
In the case of `C[C@H](N)C(=O)N1C[C@H]2CC(C(=O)Nc3cc(-c4cnn5c4CC(C)(C)C5)c(Cl)cn3)C[C@H]2C1` (stereo partly drawn) [Compound 5, (3aR,6aS)-2-(L-alanyl)-N-(5-chloro-4-(5,5-dimethyl-5,6-dihydro-4H-pyrrolo[1,2-b]pyrazol-3-yl)pyridin-2-yl)octahydrocyclopenta[c]pyrrole-5-carboxamide], the IC50 with Mv4-11 cells (Homo sapiens, MV4-11, 48 h) is 7.6 nM; at CDK9 kinase, 2.8 nM.
As for `C[C@@H](N)C(=O)N1C[C@H]2CC(C(=O)Nc3cc(-c4cnn5c4CC(C)(C)C5)c(Cl)cn3)C[C@H]2C1` (stereo partly drawn) [Compound 6, (3aR,6aS)-2-(D-alanyl)-N-(5-chloro-4-(5,5-dimethyl-5,6-dihydro-4H-pyrrolo[1,2-b]pyrazol-3-yl)pyridin-2-yl)octahydrocyclopenta[c]pyrrole-5-carboxamide], the IC50 in the assay with Mv4-11 cells (Homo sapiens, MV4-11, 48 h) was determined as 5.4 nM; at CDK9 kinase, 3.7 nM.
With `CC(=O)N[C@@H]1CCC[C@H](C(=O)Nc2cc(-c3cc(C(N)=O)n4c3CC(C)(C)C4)ccn2)C1` [Compound 12], in assay [1], the “inhibitory effect on the phosphorylation” value is listed as “significant inhibitory effect”. The IC50 with Mv4-11 cells (Homo sapiens, MV4-11, 48 h) was determined as 26 nM; against CDK9 kinase, 2.9 nM.
Regarding `CC1(C)Cc2c(-c3cc(NC(=O)[C@@H]4C[C@H]5C[C@H](C(N)=O)C[C@H]5C4)ncc3Cl)cc(C(N)=O)n2C1` [Compound 15-1, (2s,3aR,5r,6aS)-N-(4-(5-carbamoyl-2,2-dimethyl-2,3-dihydro-1H-pyrrolizin-7-yl)-5-chloropyridin-2-yl)octahydropentalene-2,5-dicarboxamide], the IC50 in the assay with Mv4-11 cells (Homo sapiens, MV4-11, 48 h) turned out to be 7.9 nM; on CDK9 kinase it was 10.1 nM.
Turning to `CC1(C)Cc2c(-c3cc(NC(=O)[C@H]4C[C@H]5C[C@@H](C(N)=O)C[C@H]5C4)ncc3Cl)cc(C(N)=O)n2C1` [Compound 15-2, (2r,3aR,5s,6aS)-N-(4-(5-carbamoyl-2,2-dimethyl-2,3-dihydro-1H-pyrrolizin-7-yl)-5-chloropyridin-2-yl)octahydropentalene-2,5-dicarboxamide], the 50% inhibitory concentration (IC50) with Mv4-11 cells (Homo sapiens, MV4-11, 48 h) is 14.3 nM; on CDK9 kinase it was 3.7 nM.
As to `CC(=O)N[C@@H]1CCC[C@H](C(=O)Nc2cc(-c3cc(C(N)=O)c4n3CC(C)(C)C4)c(Cl)cn2)C1` [Compound 17, 5-(2-((1S,3R)-3-acetylaminocyclohexane-1-carboxamido)-5-chloropyridin-4-yl)-2,2-dimethyl-2,3-dihydro-1H-pyrrolizine-7-carboxamide], the IC50 is 36.1 nM in the assay with Mv4-11 cells (Homo sapiens, MV4-11, 48 h) and 4.9 nM against CDK9 kinase.
As for `CC(=O)N[C@@H]1CCC[C@H](C(=O)Nc2cc(-c3cc(C#N)c4n3CC(C)(C)C4)c(F)cn2)C1` [Compound 27, (1S,3R)-3-acetamido-N-(4-(7-cyano-2,2-dimethyl-2,3-dihydro-1H-pyrrolizin-5-yl)-5-fluoropyridin-2-yl)cyclohexane-1-carboxamide], the IC50 turned out to be 3.5 nM in the assay with Mv4-11 cells (Homo sapiens, MV4-11, 48 h) and 2.2 nM at CDK9 kinase.
`CC(=O)N[C@@H]1CCC[C@H](C(=O)Nc2cc(-c3cnn4c3CC(C)(C)C4)c(C(F)(F)F)cn2)C1` [Compound 30, (1S,3R)-3-acetamido-N-(4-(5,5-dimethyl-5,6-dihydro-4H-pyrrolo[1,2-b]pyrazol-3-yl)-5-(trifluoromethyl)pyridin-2-yl)cyclohexane-1-carboxamide]: the 50% inhibitory concentration (IC50) in the assay on Mv4-11 cells (Homo sapiens, MV4-11, 48 h) turned out to be 15.3 nM; on CDK9 kinase, 6.3 nM.
`CC(=O)N[C@@H]1CCC[C@H](C(=O)Nc2cc(-c3cc(C(N)=O)c4n3CC(C)(C)C4)c(F)cn2)C1` [Compound 31, 5-(2-((1S,3R)-3-acetylaminocyclohexane-1-carboxamido)-5-fluoropyridin-4-yl)-2,2-dimethyl-2,3-dihydro-1H-pyrrolizine-7-carboxamide]: the 50% inhibitory concentration (IC50) in the assay on Mv4-11 cells (Homo sapiens, MV4-11, 48 h) is 9.2 nM; against CDK9 kinase it was 4.8 nM.
On the same counts, the results for `CC(=O)N[C@H]1C[C@@H]2C[C@@H](C(=O)Nc3cc(-c4cc(C(N)=O)n5c4CC(C)(C)C5)c(F)cn3)C[C@@H]2C1` [Compound 34-1, 7-(2-((2r,3aR,5s,6aS)-5-acetylaminooctahydropentalene-2-carboxamido)-5-fluoropyridin-4-yl)-2,2-dimethyl-2,3-dihydro-1H-pyrrolizine-5-carboxamide] are 2.3 nM and 4.9 nM.
